Results taken from patent US6235736A, “3-anilino-2-cycloalkenone derivatives” (Nikken Chemicals Co., Ltd., priority 1997, dated 2001).

What follows are compounds tested on TPA induced ear edema in mouse (assay: TPA induced mouse ear edema assay). Details: 0.1 mg applied to right ear immediately after TPA; 6 hour.
Format: in vivo, mouse (male ICR)
Experimental: Male ICR mice, 5 week old, were divided into groups of seven to eight. 2 μg of TPA (phorbor 12-ministate; Sigma Co.) in 20 μl acetone was applied to the inner and outer surface of right ear of each mouse to cause a reaction. 0.1 mg of compound was dissolved in 20 μl of a tetrahydrofuran-methanol mixture (mixture ratio 1:1) and the solution (20 μl) applied to the right ear immediately after TPA treatment. After 6 hour, the animals were sacrificed and right ear was punched out (.phi. […]) and weighed. The effect of comppund.was calculated as % inhibition as follows: [formula]

Row | Structure (SMILES) | % Inhibition of ear edema
1 | COc1ccc(NC2=CC(=O)CC2)cc1OCC1(c2ccccc2)CC1 [Compound No. 49, 3-[4-methoxy-3-[(1-phenylcyclopropyl)methoxy]anilino]-2-cyclopenten-1-one] | 54.3%
2 | CCCCCN(C1=CC(=O)CC1)c1ccc(OC)c(OC2CCCC2)c1 [Compound No. 64, 3-(3-cyclopentyloxy-4-methoxy-N-pentylanilino)-2-cyclopenten-1-one] | 52.0%
3 | CCCN(C1=CC(=O)CC1)c1ccc(OC)c(OC2CCCC2)c1 [Compound No. 59, 3-(3-cyclopentyloxy-4-methoxy-N-propylanilino)-2-cyclopenten-1-one] | 60.1%
4 | COc1ccc(N(Cc2ccc3ccccc3n2)C2=CC(=O)CC2)cc1OC1Cc2ccccc2C1 [Compound No. 80, 3-[3-(2-indanyloxy)-4-methoxy-N-(2-quinolylmethyl)anilino]-2-cyclopenten-1-one] | 64.4%

The compounds below were run on Type IV PDE (assay: PDE IV inhibitory activity (isozyme partially purified from rat neutrophils, 3H-cAMP substrate)). Details: rat neutrophil PDE IV, 30° C., 30 minutes, read-out: PDE IV inhibiting action IC50.
Format: biochemical
Experimental: Type I, III, IV, and V PDE isozymes were prepared to study the PDE inhibitory activities of and selectivities with the compound of the invention [Trends Pharmacol Sci., 12, 19-27 (1991)]. Type I PDE was purchased from Sigma Corp. Type III, IV, and V PDE isozymes were partially purified from platelets (Type III and V) or neutrophils (Type IV) collected from rats. Each enzyme source was homogenized in a buffer (pH 6.5) containing 20 mM bisTris, 2 mM EDTA (i.e., ethlenediamine tetraacetate), 2-mercaptoethanol, 0.001 mM pepstatin and 0.01 mM leupeptin and was centrifuged at 30000×G for 30 minutes to obtain a supernatant, which was applied to an ion exchange column (Q-sepharose first flow, Pharmacia Corp.) and was eluted with 0 to 1M sodium acetate. Partially purified isozymes were identified by observing the inhibitory effects of conventional inhibitors.
Each PDE isozyme and the test compound dissolved in DMSO (i.e., dimethylsulfoxide) were added to 50 mM Tris--HCI buffer containing 5 mM magnesium chloride. ^3 H-cAMP (for type III and IV PDE) or ^3 H-cGMP (for type I and V PDE) were added as substrates and were reacted at 30° C. for 30 minutes. The reaction was terminated by placing the test tube in boiling water of 100° C. for 5 minutes. The nucleotides formed by PDE were broken down to ^3 H-adenosine or ^3 H-guanosine by 5'-nucleotidase. The substrate and reaction product were separated through an ion-exchange column (i.e., QAE sephadex, Pharmacia Corp.)
The eluted ^3 -H-nucleoside was measured for its radioactivity by a liquid scintillation counter. The inhibitory activities of the compound of the present invention are shown by the IC50 value (M). Further, the inhibitory activities of the test samples against type I, III, and V PDE are 1/10 or less than that against Type IV PDE.

Row | Structure (SMILES) | IC50
5 | COc1ccc(NC2=CC(=O)CC2)cc1OCC1(c2ccccc2)CC1 [Compound No. 49, 3-[4-methoxy-3-[(1-phenylcyclopropyl)methoxy]anilino]-2-cyclopenten-1-one] | 2.3 µM
6 | CCCCCN(C1=CC(=O)CC1)c1ccc(OC)c(OC2CCCC2)c1 [Compound No. 64, 3-(3-cyclopentyloxy-4-methoxy-N-pentylanilino)-2-cyclopenten-1-one] | 4.4 µM
7 | CCCN(C1=CC(=O)CC1)c1ccc(OC)c(OC2CCCC2)c1 [Compound No. 59, 3-(3-cyclopentyloxy-4-methoxy-N-propylanilino)-2-cyclopenten-1-one] | 7.4 µM
8 | COc1ccc(N(C)C2=C(C)C(=O)CC2)cc1OC1CCCC1 [Compound No. 70, 3-(3-cyclopentyloxy-4-methoxy-N-methylanilino)-2-methyl-2-cyclopenten-1-one] | 3.1 µM
9 | COc1ccc(N(Cc2ccc3ccccc3n2)C2=CC(=O)CC2)cc1OC1Cc2ccccc2C1 [Compound No. 80, 3-[3-(2-indanyloxy)-4-methoxy-N-(2-quinolylmethyl)anilino]-2-cyclopenten-1-one] | 0.12 µM
10 | COc1ccc(NC2=C(C)C(=O)CC2)cc1OC1CCCC1 [Compound No. 4, 3-(3-cyclopentyloxy-4-methoxyanilino)-2-methyl-2-cyclopenten-1-one] | 0.39 µM
11 | COc1ccc(N(Cc2ccc3ccccc3c2)C2=C(C)C(=O)CC2)cc1OC1Cc2ccccc2C1 [Compound No. 74, 3-[3-(2-indanyloxy)-4-methoxy-N-(2-naphthylmethyl)anilino]-2-methyl-2-cyclopenten-1-one] | 3.5 µM
12 | COc1ccc(NC2=CC(=O)C(C)(C)CC2)cc1OC1CCCC1 [Compound No. 38, 3-(3-cyclopentyloxy-4-methoxyanilino)-6,6-dimethyl-2-cyclohexen-1-one] | 17 µM
13 | COc1ccc(NC2=CC(=O)CC2)cc1OCC1CCC1 [Compound No. 51, 3-(3-cyclobutylmethoxy-4-methoxyanilino)-2-cyclopenten-1-one] | 1.9 µM
14 | COc1ccc(NC2=CC(=O)CC2)cc1OCC1CC1 [Compound No. 15, 3-(3-cyclopropylmethoxy-4-methoxyanilino)-2-cyclopenten-1-one] | 7.1 µM
15 | COc1ccc(NC2=CC(=O)CC2)cc1OCCC1Cc2ccccc2C1 [Compound No. 34, 3-[3-[2-(2-indanyl)ethoxy]-4-methoxyanilino]-2-cyclopenten-1-one] | 1.8 µM
16 | COc1ccc(NC2=CC(=O)CC2)cc1OCCc1cccc2ccccc12 [compound 42, 3-[4-methoxy-3-[2-(1-naphthyl)ethoxy]anilino]-2-cyclopenten-1-one] | 9.6 µM
17 | COc1ccc(NC2=C(C)C(=O)CC2)cc1OCC1CCCC1 [Compound No. 41, 3-(3-cyclopentylmethoxy-4-methoxyanilino)-2-methyl-2-cyclopenten-1-one] | 0.94 µM
18 | COc1ccc(NC2=CC(=O)CC2)cc1OCCc1ccccc1 [Compound No. 11, 3-(4-methoxy-3-phenethyloxyanilino)-2-cyclopenten-1-one] | 4 µM
19 | COc1ccc(NC2=C(CN3CCOCC3)C(=O)CC2)cc1OC1CCCC1 [Compound No. 25, 3-(3-cyclopentyloxy-4-methoxyanilino)-2-(4-morpholinomethyl)-2-cyclopenten-1-one] | 17 µM
20 | COc1ccc(NC2=CC(=O)CC(c3ccccc3)C2)cc1OC1CCCC1 (stereo not drawn) [Compound No. 39, 3-(3-cyclopentyloxy-4-methoxyanilino)-5-phenyl-2-cyclohexen-1-one] | 3.9 µM

Row | Structure (SMILES) | IC50
21 | COc1ccc(NC2=CC(=O)CC(C)C2)cc1OC1CCCC1 (stereo not drawn) [Compound No. 5, 3-(3-cycloientyloxy-4-methoxyanilino)-5-methyl-2-cyclohexen-1-one] | 2.2 µM
22 | COc1ccc(NC2=CC(=O)CCC2)cc1OCc1ccccc1 [Compound No. 20, 3-(3-benzyloxy-4-methoxyanilino)-2-cyclohexen-1-one] | 44 µM
23 | COc1ccc(NC2=C(Cc3ccccc3)C(=O)CCC2)cc1OC1CCCC1 [Compound No. 69, 2-benzyl-3-(3-cyclopentyloxy-4-methoxyanilino)-2-cyclohexen-1-one] | 1.1 µM
24 | COc1ccc(N(Cc2ccc3ccccc3n2)C2=C(C)C(=O)CC2)cc1OC1CCCC1 [Compound No. 72, 3-[3-cyclopentyloxy-4-methoxy-N-(2-quinolylemethyl)anilino]-2-methyl-2-cyclopenten-1-one] | 3 µM
25 | COc1ccc(NC2=C(Cl)C(=O)CC2)cc1OC1CCCC1 [Compound No. 6, 2-chloro-3-(3-cyclopentyloxy-4-methoxyanilino)-2-cyclopenten-1-one] | 0.54 µM
26 | COc1ccc(NC2=CC(=O)CC(C)(C)C2)cc1OC1CCCC1 [Compound No. 3, 3-(3-cycloientyloxy-4-methoxyanilino)-5,5-dimethyl-2-cyclohexen-1-one] | 4.9 µM
27 | COc1ccc(N(C(C)=O)C2=CC(=O)CC2)cc1OC1CCCC1 [Compound No. 29, 3-(N-acetyl-3-cyclopentyloxy-4-methoxyanilino)-2-cyclopenten-1-one] | 48 µM
28 | COc1ccc(NC2=C(C)C(=O)CCC2)cc1OCC1CCCC1 [Compound No. 54, 3-(3-cyclopentylmethoxy-4-methoxyanilino)-2-methyl-2-cyclohexen-1-one] | 0.73 µM
29 | COc1ccc(NC2=CC(=O)CC2)cc1OC1CCOC1 (stereo not drawn) [Compound No. 36, 3-[4-methoxy-3-(3-2,3,4,5-tetrahydrofuranyloxy)anilino]-2-cyclopenten-1-one] | 8.9 µM
30 | COc1ccc(NC2=C(C)C(=O)CCC2)cc1O[C@@H]1C[C@H]2CC[C@@H]1C2 (racemic) [Compound No. 46, 3-[3-[(1RS,2RS,4SR)-bicyclo[2.2. 1]hept-2-yloxy]-4-methoxyanilino]-2-methyl-2-cyclohexen-1-one] | 0.26 µM
31 | COc1ccc(NC2=C(C)C(=O)CC2)cc1OCCc1cccc2ccccc12 [Compound No. 43, 3-[4-methoxy-3-[2-(1-naphthyl)ethoxy]anilino]-2-methyl-2-cyclopenten-1-one] | 1.3 µM
32 | COc1ccc(NC2=CC(=O)CC2)cc1OCC1CCCC1 [Compound No. 40, 3-(3-cyclopentylmethoxy-4-methoxyanilino)-2-cyclopenten-1-one] | 4 µM
33 | CCCCOc1cc(NC2=C(C)C(=O)CC2)ccc1OC [Compound No. 18, 3-(3-butoxy-4-methoxyanilino)-2-methyl-2-cyclopenten-1-one] | 1.7 µM
34 | COc1ccc(NC2=C(CN(C)C)C(=O)CC2)cc1OC1CCCC1 [Compound No. 24, 3-(3-cyclopentyloxy-4-methoxyanilino)-2-dimethylaminomethyl-2-cyclopenten-1-one] | 61 µM
35 | COc1ccc(N(Cc2ccccc2)C2=C(C)C(=O)CC2)cc1OC1CCCC1 [Compound No. 71, 3-(N-benzyl-3-cyclopentyloxy-4-methoxyanilino)-2-methyl-2-cyclopenten-1-one] | 8.2 µM
36 | COc1ccc(NC2=C(C)C(=O)CC2)cc1OCC1CCC1 [Compound No. 52, 3-(3-cyclobutylmethoxy-4-methoxyanilino)-2-methyl-2-cyclopenten-1-one] | 0.55 µM
